As usually defined, the IC50 is the concentration needed to halve the response being measured. A lower IC50 goes with inhibition by little substance.

What all share (assay): Continuous Assay
The target in assay [1] is Dihydroorotate dehydrogenase (quinone), mitochondrial (Homo sapiens, UniProt Q02127). The procedure: (§1) Assay was determined using a continuous assay.
In assay [2] the target is T1, Dihydroorotate dehydrogenase (quinone), mitochondrial (Plasmodium falciparum, UniProt Q54A96).
T1 sequence (Q54A96 whole entry): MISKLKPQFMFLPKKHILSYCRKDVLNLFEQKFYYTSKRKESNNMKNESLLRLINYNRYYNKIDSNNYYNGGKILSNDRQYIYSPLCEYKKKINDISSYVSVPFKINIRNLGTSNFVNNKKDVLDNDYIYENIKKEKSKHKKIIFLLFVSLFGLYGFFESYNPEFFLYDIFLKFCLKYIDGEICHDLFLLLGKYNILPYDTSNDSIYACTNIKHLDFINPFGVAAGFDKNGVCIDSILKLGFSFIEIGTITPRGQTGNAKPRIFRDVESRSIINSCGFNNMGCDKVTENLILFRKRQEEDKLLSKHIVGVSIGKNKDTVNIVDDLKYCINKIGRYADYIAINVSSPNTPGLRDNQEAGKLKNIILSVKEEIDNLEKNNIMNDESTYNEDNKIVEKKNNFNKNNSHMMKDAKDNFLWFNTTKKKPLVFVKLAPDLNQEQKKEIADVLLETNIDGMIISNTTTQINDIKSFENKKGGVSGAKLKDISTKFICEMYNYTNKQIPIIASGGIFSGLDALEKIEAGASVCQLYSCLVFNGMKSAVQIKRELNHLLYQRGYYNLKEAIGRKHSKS
As to the method: as §1

In assay [3] the target is T2, Dihydroorotate dehydrogenase (quinone), mitochondrial [100-517] (Plasmodium berghei (strain Anka), UniProt A0A509AEH5).
T2 construct: 100-517
T2 sequence (A0A509AEH5 whole entry): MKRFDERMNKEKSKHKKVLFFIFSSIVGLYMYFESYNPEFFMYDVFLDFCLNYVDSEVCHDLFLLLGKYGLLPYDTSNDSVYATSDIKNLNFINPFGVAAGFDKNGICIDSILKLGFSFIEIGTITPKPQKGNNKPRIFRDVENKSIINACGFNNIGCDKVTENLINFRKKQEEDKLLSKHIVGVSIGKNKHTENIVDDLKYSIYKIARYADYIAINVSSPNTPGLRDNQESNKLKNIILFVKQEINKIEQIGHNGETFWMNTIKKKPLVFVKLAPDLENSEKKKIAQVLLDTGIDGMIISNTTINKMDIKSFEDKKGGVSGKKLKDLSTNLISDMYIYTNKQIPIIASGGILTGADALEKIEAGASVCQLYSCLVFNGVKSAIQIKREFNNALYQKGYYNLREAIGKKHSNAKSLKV
As to the method:
as §1

Assay [4] has as its target T3, Dihydroorotate dehydrogenase (quinone), mitochondrial (Plasmodium vivax (strain Salvador I), UniProt A5K1N1).
T3 sequence (A5K1N1 whole entry): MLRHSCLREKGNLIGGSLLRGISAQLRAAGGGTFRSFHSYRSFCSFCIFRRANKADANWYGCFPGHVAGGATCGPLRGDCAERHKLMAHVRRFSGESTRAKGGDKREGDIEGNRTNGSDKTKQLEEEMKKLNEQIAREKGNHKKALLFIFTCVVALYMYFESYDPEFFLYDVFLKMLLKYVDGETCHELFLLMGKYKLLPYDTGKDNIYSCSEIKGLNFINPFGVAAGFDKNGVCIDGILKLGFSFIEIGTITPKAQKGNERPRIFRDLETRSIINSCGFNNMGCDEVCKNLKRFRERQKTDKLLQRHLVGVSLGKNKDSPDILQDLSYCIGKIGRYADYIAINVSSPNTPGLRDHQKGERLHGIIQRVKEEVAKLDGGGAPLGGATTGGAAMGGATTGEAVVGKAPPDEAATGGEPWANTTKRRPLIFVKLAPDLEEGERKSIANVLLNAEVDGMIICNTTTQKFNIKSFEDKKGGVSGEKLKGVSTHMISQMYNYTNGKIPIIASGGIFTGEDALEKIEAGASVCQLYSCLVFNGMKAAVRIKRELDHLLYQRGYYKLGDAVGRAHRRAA
The procedure:
as §1

Sequence of Dihydroorotate dehydrogenase (quinone), mitochondrial (Homo sapiens, UniProt Q02127) (Q02127 whole entry): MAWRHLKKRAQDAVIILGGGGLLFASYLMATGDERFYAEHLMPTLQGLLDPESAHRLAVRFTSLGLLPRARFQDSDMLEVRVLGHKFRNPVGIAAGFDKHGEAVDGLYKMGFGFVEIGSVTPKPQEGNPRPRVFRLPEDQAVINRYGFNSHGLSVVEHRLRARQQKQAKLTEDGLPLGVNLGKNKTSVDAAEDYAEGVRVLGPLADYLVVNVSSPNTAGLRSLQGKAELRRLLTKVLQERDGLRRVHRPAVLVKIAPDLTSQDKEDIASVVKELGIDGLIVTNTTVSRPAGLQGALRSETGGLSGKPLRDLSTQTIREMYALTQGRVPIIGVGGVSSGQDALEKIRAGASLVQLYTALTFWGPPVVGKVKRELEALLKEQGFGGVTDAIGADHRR

As to `CCOC(=O)c1[nH]c(C)c(Cc2ccc(OCC)cc2)c1C` [US8703811, 6], the figures for the IC50 in assay [1], in assay [2] and in assay [3] were above 30000 nM, 83 nM and 60 nM, respectively.
As for `O=C(NC1CC1)c1ccc(N2CCSc3ccccc32)s1` [US8703811, 5], the IC50 in assay [2] was 250 nM. That is a sub-micromolar value.
Regarding `CCCNC(=O)c1ccc(-n2c(C)cc3ccccc32)s1` [US8703811, 1], the IC50 in assay [1] is above 30000 nM; in assay [2], 420 nM.
Consider `CCCCCC1CCCc2c1nc1ccccc1c2O` (centres undefined) [US8703811, 3], for which the IC50 in assay [1] was above 30000 nM; in assay [2], 340 nM; in assay [4] it was 510 nM; in assay [3], 110 nM.
On to `Cc1ccccc1/C=C/c1cc(O)c2ccccc2n1` [US8703811, 2], for which the IC50 in assay [1] was above 30000 nM; in assay [2], 930 nM; in assay [4], 5600 nM; in assay [3] it was 560 nM.

(Values after BindingDB's records for doi:10.1074/jbc.M804990200 (Harvard Medical School, 2008).)
